Test results from patent publication US8242166B2, “C(10) ethyl ester and C(10) cyclopropyl ester substituted taxanes” (Florida State University Research Foundation, Inc., priority 2008, dated 2012).
Read-outs that look alike come from different tables or passages of the source.

What was measured:
PANC-1 = test: MTT cytotoxicity (IC50), PANC-1; type: cell-based; conditions: Homo sapiens, 72 h, read-out: IN Vitro IC50 (nm) Panc
Protocol: (§1) Compound 17932 was tested in four of these cell lines, while the remaining compounds were tested in all of these cell lines. All cell lines were maintained in RPMI-1640 tissue culture medium (TCM, supplemented with antibiotics and 10% fetal bovine serum) and cultured at 37° C. in humidified air containing 5% CO2. To assess the antiproliferative effects of the test compounds, 172 μL of tumor cell suspension (1.45×10^4 cells/ml) were added to each well of a 96-well plate and incubated for 24 h at 37° C. in 5% CO2 in air to allow cells to adhere. Seven 2-fold drug dilutions in TCM/DMSO were performed in triplicate in separate 96-well plates and 28 μL was transferred to the wells containing tumor cells (200 μL final volume/0.1% DMSO). Plates were incubated for 72 h and cell viability was determined by adding 50 μL of warm TCM containing 5 mg/mL MTT (3-[4,5-dimethylthiazol-2-yl]-2,5-diphenyltetrazolium bromide) to each well and incubating for 1 h at 37° C. Plates were processed and the absorbances of the resulting solutions were measured by a plate reader at 570 nm. […] (GraphPad Prism version 4.00 for Windows). Studies were conducted by Taxolog, Inc., Tallahassee, Fla.

HT29 = test: MTT cytotoxicity (IC50), HT29; type: cell-based; conditions: Homo sapiens, HT-29, 72 h, read-out: IN Vitro IC50 (nm) HT29
Protocol: as §1

786-0 = test: MTT cytotoxicity (IC50), 786-0; type: cell-based; conditions: Homo sapiens
Protocol: as §1

A375 = test: MTT cytotoxicity (IC50), A375; type: cell-based; conditions: Homo sapiens, A-375
Protocol: as §1

A549 = test: MTT cytotoxicity (IC50), A549; type: cell-based; conditions: Homo sapiens, 72 h, read-out: IN Vitro IC50 (nm) A549
Protocol: as §1

MALME-3 = test: MTT cytotoxicity (IC50), MALME-3; type: cell-based; conditions: Homo sapiens, 72 h, read-out: IN Vitro IC50 (nm) Malme3
Protocol: as §1

OVCAR5 = test: MTT cytotoxicity (IC50), OVCAR5; type: cell-based; conditions: Homo sapiens, OVCAR-5, 72 h, read-out: IN Vitro IC50 (nm) OVCAR5
Protocol: as §1

OVCAR4 = test: MTT cytotoxicity (IC50), OVCAR4; type: cell-based; conditions: Homo sapiens, OVCAR-4, 72 h, read-out: IN Vitro IC50 (nm) OVCAR4
Protocol: as §1

HOP-18 = test: MTT cytotoxicity (IC50), HOP-18; type: cell-based; conditions: Homo sapiens, 72 h, read-out: IN Vitro IC50 (nm) HOP18
Protocol: as §1

SK-MEL-28 = test: MTT cytotoxicity (IC50), SK-MEL-28; type: cell-based; conditions: Homo sapiens, 72 h, read-out: IN Vitro IC50 (nm) ske-mel28
Protocol: as §1

SNB-19 = test: MTT cytotoxicity (IC50), SNB-19; type: cell-based; conditions: Homo sapiens, 72 h, read-out: IN Vitro IC50 (nm) SNB19
Protocol: as §1

BxPC-3 cancer cell line = test: MTT cytotoxicity (IC50), BxPC-3 (Oncodesign); type: cell-based; conditions: Homo sapiens
Protocol: BxPC-3 cancer cell line (Source ATCC) and culture medium were purchased and provided by Oncodesign (France).
Tumor cells (5,000 cells per well) were plated in 96-well flat-bottom microtitration plates (Ref 167008, Batch 083310, Nunc, Dutscher, Brumath, France) and incubated at 37° C. for 24 hours before treatment in 100 μl of drug-free RPMI 1640 medium supplemented with 10% FBS. Tumor cell lines were incubated for 72 hours with 10 concentrations of both test substances and TXT (40 to 0.07 nM using ½ step dilutions). Experiments were repeated three times, each assay being issued from quadruplicate. Control cells were treated with the vehicle alone. At the end of treatments, the cytotoxic activity was evaluated by a MTT assay. These studies were conducted at Oncodesign, France.

[1] = test system: human BxPC-3 human pancreatic xenograft; type: in vivo; conditions: for T/C % values: from D33
Protocol: Method: Twenty four (24) hours after a whole body irradiation with a γ-source (7.0 Gy, Co^60, INRA, Dijon, France) 20×10^6 BxPC-3 cells in 200 μl of RPMI 1640 culture medium were subcutaneously injected in the right flank of 8 female Nude rats to generate tumor material. When the tumor size reaches approximately 1,000 mm^3, the tumors were surgically excised for implantation into recipient Nude female rats. Twenty four (24) hours after a whole body irradiation (7.0 Gy, Co^60, INRA, Dijon, France), fresh BxPC-3 tumor fragments were sc implanted in the right flank of 52 Nude female rats (1 fragment/rat) at D0 using surgical pliers and skin was stitched. The antitumor activity study was started at D21 when the mean tumor volume has reached 321.6±131.2 mm^3. Before the start of treatments, 42 tumor bearing rats out of 52 grafted were randomized into 7 groups of 6 animals.
[…]. At 7 mg/kg/inj, only two treatments were performed at D21 and D42 due to severe body weight loss.

[2] = test system: MX1 human tumor xenografts; conditions: 25 mg/kg iv qd × 1
[3] = MTT, 72 h, read-out: IN Vitro IC50 (nm) 786-0
[4] = Resistance MDR1+, read-out: 786-0 Renal (Table 4, quantity not named; IC50 values as Table 2)
[5] = MTT, 72 h, read-out: IN Vitro IC50 (nm) A375
[6] = Resistance MRP9, read-out: A375 Melanoma (Table 4, quantity not named; IC50 values as Table 2)

Work on `CC(=O)O[C@@]12CO[C@@H]1C[C@H](O)[C@@]1(C)C(=O)[C@H](O)C3=C(C)[C@@H](OC(=O)[C@H](O)[C@@H](NC(=O)OC(C)(C)C)c4ccccc4)C[C@@](O)([C@@H](OC(=O)c4ccccc4)[C@H]21)C3(C)C` [Docetaxel, docetaxel, reference compound] yielded an IC50 (PANC-1) of 1.9 nM, an IC50 (HT29) of 1.3 nM and an IC50 (786-0; [3]) of 6.2 nM. For the same compound, the IC50 (786-0; [4]) was 6.2 nM, the IC50 (A375; [5]) was 2.4 nM and the IC50 (A375; [6]) was 2.4 nM. For the same compound, the IC50 (A549) was 1.3 nM, the IC50 (MALME-3) was 1.8 nM and the IC50 (OVCAR5) was 1.1 nM. For the same compound, the IC50 (OVCAR4) was 1.4 nM, the IC50 (HOP-18) was 3.4 nM and the IC50 (SK-MEL-28) was 2.1 nM. For the same compound, the IC50 (SNB-19) was 1.9 nM, the IC50 (BxPC-3 cancer cell line; BXPC-3, 72 h, Exp 1, MTT, 72 hours, read-out: IC50 (nM) BxPC-3) was 0.93 nM and the IC50 (BxPC-3 cancer cell line; BXPC-3, 72 h, Exp 2, MTT, 72 hours, read-out: IC50 (nM) BxPC-3) was 2.2 nM. For the same compound, the IC50 (BxPC-3 cancer cell line; BXPC-3, 72 h, Exp 3, MTT, 72 hours, read-out: IC50 (nM) BxPC-3) was 0.73 nM, the IC50 (BxPC-3 cancer cell line; BXPC-3, mean of 3 experiments, read-out: IC50 Mean ± SD (nM) BxPC-3) was 1.29 ± 0.8 nM and the rats found dead ([1]; 5 mg/kg/inj IV, 6 rats per group) was 2. For the same compound, the rats found dead ([1]; 5 mg/kg/inj IV, 6 rats per group, listed as TXT) was “two”, the “optimal T/C % value” ([1]; 5 mg/kg/inj IV, at D60) was 3.8% and the “animals with complete tumor regression” value ([1]; 5 mg/kg/inj IV, at D81 (final sacrifice), 6 rats per group) was “one”. The T/C % values ([1]; 5 mg/kg/inj IV) was “lower than 42%”, the rats found dead ([1]; 7 mg/kg/inj IV, 6 rats per group) was 2 and the rats found dead ([1]; 7 mg/kg/inj IV, 6 rats per group, listed as TXT) was “Two”. The “optimal T/C % value” ([1]; 7 mg/kg/inj IV, at D56) was 12.3%, the T/C % values ([1]; 7 mg/kg/inj IV) was “lower than 42%” and the “antitumor activity” value ([1]; repeated IV injections at 5 and 7 mg/kg/inj) was “marked antitumor activity”. For the same compound, the “% TGD” value [2] was 249.47%, the “MTV (n), Day 60” value [2] was 0.00 (3) mm^3 and the “Median TTE” value [2] was 60 days. For the same compound, the T-C [2] was 42.83 days, the “CR (complete regression)” value ([2]; n=5) was 3 and the “NTR (non-treatment-related death)” value ([2]; n=5) was 0. For the same compound, the “PR (partial regression)” value ([2]; n=5) was 0, the “TFS (tumor-free survivor)” value ([2]; n=5) was 2 and the “TR (treatment-related death)” value ([2]; n=5) was 0. The “mice survived to D60” value ([2]; n=5) was “Three” and the “transient CR” value ([2]; n=5) was 1.
Compound `CCC(=O)O[C@H]1C(=O)[C@@]2(C)C([C@H](OC(=O)c3ccccc3)[C@]3(O)C[C@H](OC(=O)[C@H](O)[C@@H](NC(=O)OC4CCCC4)c4cccs4)C(C)=C1C3(C)C)[C@]1(OC(C)=O)CO[C@@H]1C[C@@H]2O` (stereo partly drawn) [Compound 18926] has an IC50 (PANC-1) of 0.5 nM, an IC50 (HT29) of 0.4 nM and an IC50 (786-0; [3]) of 0.7 nM. It also gave an IC50 (786-0; [4]) of 0.7 nM, an IC50 (A375; [5]) of 0.5 nM and an IC50 (A375; [6]) of 0.5 nM. The IC50 (A549) was 0.4 nM, the IC50 (MALME-3) was 1.8 nM and the IC50 (OVCAR5) was 0.2 nM. For the same compound, the IC50 (OVCAR4) was 1 nM, the IC50 (HOP-18) was 1.6 nM and the IC50 (SK-MEL-28) was 0.6 nM. The IC50 (SNB-19) was 1 nM.
